2 substances from patent publication US20140066381A1, “NOVEL PEPTIDES THAT ARE MODULATORS OF THE PROTEIN TRF2 AND COMPOSITIONS CONTAINING SAME” (ISP INVESTMENTS INC., priority 2011, published 2014) can be followed below.

Ends that are not written are not given here.

Common to all, as to assay type: cell-based
For one assay, the system named is Human skin biopsies. The assay can be described thus: Human skin biopsies rendered senescent in vitro using methylglyoxal, H&E morphology. The protocol:
Human skin biopsies are rendered artificially senescent in vitro, by means of a treatment with methylglyoxal (MGO). For this, des punch de 6-mm human skin punch biopsies are incubated at the air-liquid interface in a specific culture medium. They are then treated with 5 mM or 10 mM of MGO (Sigma) deposited at the surface of the biopsies and in the culture medium. The biopsies are then treated with: • condition 1: 20 μL of PBS 1×, or • condition 2: 20 μL of peptide SEQ ID NO: 4 at 1%, or • condition 3: 20 μL of peptide SEQ ID NO: 4 at 3%.
The biopsies are fixed and embedded in paraffin, and are then cut into 4-μm sections using a microtome. Hematoxyline/eosine (H&E) immunolabeling is performed on the sections previously cut and their morphology and structure are studied by microscopic observation (under a microscope Nikon Eclipse E600, objective 40×).

Another assay concerns vimentin. Nature of the assay: Vimentin immunofluorescence detection in fibroblasts aged by replicative senescence. Particulars: human fibroblasts, daily application of peptide at 1% or 3%, more than 17 passages, immunofluorescence at passages 6 and 17. The protocol:
Human fibroblasts are placed in culture in a specific medium and kept in culture for a long treatment (for more than 17 passages), by means of a daily application of the peptide SEQ ID NO: 2 at a concentration of 1% or of 3%. A vimentin immunofluorescence detection experiment is performed on the cells in culture passages 6 and 17. The cells are then washed with PBS, fixed with 3.7% formaldehyde for 10 minutes, permeabilized by means of 0.2% Triton X-100 for 10 minutes (Fisher Chemical) and incubated with 1% BSA (Euromedex) for 15 minutes. An anti-vimentin antibody (Tebu Santa Cruz) is then added and incubated at a dilution of 1/200 for 2 h at room temperature. After washing with PBS, a Donkey anti-mouse IgG antibody, conjugated with a marker ALEXA FLUOR® 488, is added at a dilution of 1/1000 and incubated for one hour at room temperature. Finally, the sections are mounted with Fluoromount G (Electron Microscopy Science) and examined under a microscope (Nikon Eclipse 80i, enlargement 40×).

Another assay deals with TRF2 protein. Nature of the assay: TRF2 protein expression by Western Blot in human fibroblasts with or without TRF2 siRNA. Particulars: 72 h. The protocol: To quantify the efficacy of a peptide compound according to the invention, on the overexpression of TRF2 in a human fibroblast population, the gene coding for TRF2 was “turned off” by using the siRNA technique.
Fibroblast cells are placed in culture in a 6-well plate until 60% confluence. The culture medium is renewed by adding the peptide SEQ ID NO: 2 at 1% under the conditions described below. Then, 100 μL of a mixture previously produced containing, in the end, 10 nM of TRF2 siRNA and the transfection agent are gently added, one drop at a time, and one well at a time. The cell culture plate is incubated at 37° C. and 5% in CO2 for 72 h. The culture medium is renewed every 2 days. Four conditions were established: • condition 1: control without siRNA and without active agent • condition 2: cells transfected with the siRNA, without active agent • condition 3: cells not transfected but treated with the active agent • condition 4: cells transfected with the siRNA and treated with the active agent
The quantification of the TRF2 expression is observed by the classic immunotransfer technique (Western Blot) performed with an anti-TRF2 antibody and according to a classic protocol. […]
In general terms: A western blot detects proteins with antibodies after separation by electrophoresis.

In the case of “Ala-Met-Lys-Lys-Gln-Lys-Trp-NH2 (AMKKQKW-NH2) [SEQ ID NO: 4]”, in the assay with Human skin biopsies (6-mm human skin punch biopsies, 5 mM or 10 mM MGO, 20 μL of peptide at 1% or 3%, H&E), the “damage inflicted on the structures of the biopsies vs control conditions” value was “much less significant”. Also, the “protective effect of the peptide, 3% dose vs 1% dose” value with Human skin biopsies (human skin biopsies treated with MGO, 20 μL of peptide at 1% vs 3%) is on record as “dose-dependent”.
Consider “Lys-Lys-Gln-Lys-Trp-NH2 (KKQKW-NH2) [SEQ ID NO: 2]”, for which the “vimentin expression in aged fibroblasts, treated vs not treated” value in the assay with vimentin was “express less vimentin”. Further, the “increase in the expression of the TRF2 protein with respect to the control” value in the assay with TRF2 protein (condition 3 vs condition 1: cells not transfected, peptide at 1%, Western Blot) came out at 17%. Besides, the “reduction in TRF2 expression with respect to the control condition” value in the assay on TRF2 protein (condition 4 vs condition 1: cells transfected with 10 nM TRF2 siRNA and treated with peptide at 1%) is reported as “no more than 18%”.
